Results reported in BindingDB's records for doi:10.1021/jm9508853 (University of Maryland, 2021).

What was measured:
[1] = biological target: T1, B-cell lymphoma 6 protein (Homo sapiens, UniProt P41182); experiment: Inhibition of human BCL6 BTP domain by ELISA assay
[2] = biological target: Casein kinase II subunit alpha 3 (Homo sapiens, UniProt Q8NEV1); experiment: Inhibition of CK2 (unknown origin)
[3] = biological target: T1, B-cell lymphoma 6 protein; experiment: Binding affinity to human BCL6 BTP domain assessed as dissociation constant by SPR assay
[4] = biological target: T1, B-cell lymphoma 6 protein; experiment: Inhibition of human BCL6 BTP domain measured by cell reporter assay
[5] = biological target: T1, B-cell lymphoma 6 protein; experiment: Inhibition of human BCL6 BTP domain measured by TR-FRET assay
[6] = biological target: T1, B-cell lymphoma 6 protein; experiment: Inhibition of human BCL6 BTP domain
[7] = biological target: T1, B-cell lymphoma 6 protein; experiment: Inhibition of human BCL6 BTP domain measured by fluorescence polarization assay
[8] = biological target: T1, B-cell lymphoma 6 protein; experiment: Irreversible inhibition of human BCL6 BTP domain measured by TR-FRET assay
[9] = biological target: T1, B-cell lymphoma 6 protein; experiment: Reversible inhibition of human BCL6 BTP domain measured by TR-FRET assay

Chain of Casein kinase II subunit alpha 3 (Q8NEV1 whole entry, the tested form may be a part): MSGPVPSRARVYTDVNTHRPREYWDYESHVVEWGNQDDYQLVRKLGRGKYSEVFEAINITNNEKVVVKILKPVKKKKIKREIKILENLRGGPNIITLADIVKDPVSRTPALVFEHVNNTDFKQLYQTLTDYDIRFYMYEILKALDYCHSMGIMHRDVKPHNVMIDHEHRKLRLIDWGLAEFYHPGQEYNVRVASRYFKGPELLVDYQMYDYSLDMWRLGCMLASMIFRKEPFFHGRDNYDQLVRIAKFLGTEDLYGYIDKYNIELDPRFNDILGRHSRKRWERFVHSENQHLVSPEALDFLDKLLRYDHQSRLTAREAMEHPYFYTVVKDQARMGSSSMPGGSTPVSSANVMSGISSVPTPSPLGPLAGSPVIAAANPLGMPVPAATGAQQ

CC(=O)N[C@@H](Cc1c[nH]c2ccccc12)C(=O)N[C@@H](CCCNC(=N)N)C(=O)N[C@H](C(=O)N1CCC[C@H]1C(=O)O)C(C)C
IC50 [1]: 170 µM

CSCC[C@H](N)C(=O)N[C@@H](CO)C(=O)N[C@@H](Cc1c[nH]c2ccccc12)C(=O)N[C@@H](CCCNC(=N)N)C(=O)N[C@H](C(=O)N1CCC[C@H]1C(=O)O)C(C)C
IC50 [1]: 620 µM

CC(C)[C@H](NC(=O)[C@H](CCCNC(=N)N)NC(=O)[C@H](Cc1c[nH]c2ccccc12)NC(=O)[C@@H](N)CO)C(=O)N1CCC[C@H]1C(=O)O
IC50 [1]: 1500 µM

O=C1CCc2cc3cc(c2N1Cc1ccccc1)OC/C=C/CO[C@H]1C[C@@H](CO)N(C1)c1cc(n2ncc(Cl)c2n1)N3
IC50 [2]: > 10 µM

N#Cc1cnn2c3cc(nc12)N1C[C@H](C[C@H]1CO)OC/C=C/COc1cc(cc2c1NC(=O)CC2)N3
Kd [3]: 0.0065 µM
IC50 [4]: 2 µM
IC50 [5]: 0.0029 µM
IC50 [2]: 0.64 µM

Cc1ccccc1CN1C(=O)CCc2cc3cc(c21)OC/C=C/CO[C@H]1C[C@@H](CO)N(C1)c1cc(n2ncc(Cl)c2n1)N3
IC50 [2]: > 10 µM

COc1cccc(CN2C(=O)CCc3cc4cc(c32)OC/C=C/CO[C@H]2C[C@@H](CO)N(C2)c2cc(n3ncc(Cl)c3n2)N4)c1
IC50 [2]: > 10 µM

Nc1ncc(Cl)c(Nc2ccccc2)n1
Kd [3]: 68 µM

CCNc1cc(-c2cccnc2)nc2ccnn12
Kd [3]: 690 µM

CN(c1ncccc1CNc1nc(Nc2ccc3c(c2)CC(=O)N3)ncc1C(F)(F)F)S(C)(=O)=O
Kd [3]: 88 µM

CNC(=O)COc1cc2cc(Nc3nc(-n4nc(C)cc4C)ncc3Cl)ccc2n(C)c1=O
IC50 [6]: 0.012 µM

N#Cc1cnn2c(Nc3ccc4c(c3)CCC(=O)N4)cc(N3CCC[C@H]3CO)nc12
Kd [3]: 0.5 µM
IC50 [5]: 0.37 µM

N#Cc1cnn2c(Nc3ccc4c(c3)CCC(=O)N4)cc(N3CCC[C@H]3CC(=O)O)nc12
Kd [3]: 1.1 µM
IC50 [5]: 0.35 µM

N#Cc1c(NCC2CC2)ccnc1Cl
IC50 [7]: 207 µM

Cn1c(=O)n(C)c2cc(Nc3ncccc3C#N)ccc21
IC50 [7]: 86 µM

Cn1c(=O)n(C)c2cc(Nc3cc(SCc4ccccc4)ncn3)ccc21
IC50 [7]: 70 µM

N#Cc1c(NCc2ccccc2)ccnc1Cl
IC50 [7]: 120 µM

Cn1c(=O)n(CCC(C)(C)O)c2cc(Nc3ccnc(Cl)c3C#N)ccc21
IC50 [5]: 0.86 µM

O=C1Cc2cc(Nc3nc(NCc4cccc(S(=O)(=O)F)c4)ncc3Cl)ccc2N1
IC50 [8]: 0.251 µM

CNC(=O)COc1cc2cc(Nc3nc(NCc4cccc(S(=O)(=O)F)c4)ncc3Cl)cc(OC)c2n(C)c1=O
IC50 [8]: 0.152 µM

CNC(=O)COc1cc2cc(Nc3nc(NCc4cccc(S(C)(=O)=O)c4)ncc3Cl)cc(OC)c2n(C)c1=O
IC50 [9]: 0.368 µM

Cc1cc(C)n(-c2ncc(Cl)c(Nc3ccc(Cl)cc3)n2)n1
IC50 [6]: > 20 µM

Nc1ncnc(Nc2ccccc2Cl)n1
IC50 [5]: 830 µM

Nc1ncnc(Nc2ccccc2)n1 [Amanozine]
Kd [3]: 1200 µM
